Experimental data from paper doi:10.1101/2023.08.21.553510v1 (biorxiv, 2023).

How the values were obtained:
RyR2 [1] = biological target: T1, RyR2 (Mus musculus, UniProt E9Q401); experiment: [3H]ryanodine binding to microsomes; type: biochemical
RyR2 [2] = biological target: T1, RyR2; experiment: ER Ca2+; type: cell-based

T1 sequence (E9Q401 whole entry): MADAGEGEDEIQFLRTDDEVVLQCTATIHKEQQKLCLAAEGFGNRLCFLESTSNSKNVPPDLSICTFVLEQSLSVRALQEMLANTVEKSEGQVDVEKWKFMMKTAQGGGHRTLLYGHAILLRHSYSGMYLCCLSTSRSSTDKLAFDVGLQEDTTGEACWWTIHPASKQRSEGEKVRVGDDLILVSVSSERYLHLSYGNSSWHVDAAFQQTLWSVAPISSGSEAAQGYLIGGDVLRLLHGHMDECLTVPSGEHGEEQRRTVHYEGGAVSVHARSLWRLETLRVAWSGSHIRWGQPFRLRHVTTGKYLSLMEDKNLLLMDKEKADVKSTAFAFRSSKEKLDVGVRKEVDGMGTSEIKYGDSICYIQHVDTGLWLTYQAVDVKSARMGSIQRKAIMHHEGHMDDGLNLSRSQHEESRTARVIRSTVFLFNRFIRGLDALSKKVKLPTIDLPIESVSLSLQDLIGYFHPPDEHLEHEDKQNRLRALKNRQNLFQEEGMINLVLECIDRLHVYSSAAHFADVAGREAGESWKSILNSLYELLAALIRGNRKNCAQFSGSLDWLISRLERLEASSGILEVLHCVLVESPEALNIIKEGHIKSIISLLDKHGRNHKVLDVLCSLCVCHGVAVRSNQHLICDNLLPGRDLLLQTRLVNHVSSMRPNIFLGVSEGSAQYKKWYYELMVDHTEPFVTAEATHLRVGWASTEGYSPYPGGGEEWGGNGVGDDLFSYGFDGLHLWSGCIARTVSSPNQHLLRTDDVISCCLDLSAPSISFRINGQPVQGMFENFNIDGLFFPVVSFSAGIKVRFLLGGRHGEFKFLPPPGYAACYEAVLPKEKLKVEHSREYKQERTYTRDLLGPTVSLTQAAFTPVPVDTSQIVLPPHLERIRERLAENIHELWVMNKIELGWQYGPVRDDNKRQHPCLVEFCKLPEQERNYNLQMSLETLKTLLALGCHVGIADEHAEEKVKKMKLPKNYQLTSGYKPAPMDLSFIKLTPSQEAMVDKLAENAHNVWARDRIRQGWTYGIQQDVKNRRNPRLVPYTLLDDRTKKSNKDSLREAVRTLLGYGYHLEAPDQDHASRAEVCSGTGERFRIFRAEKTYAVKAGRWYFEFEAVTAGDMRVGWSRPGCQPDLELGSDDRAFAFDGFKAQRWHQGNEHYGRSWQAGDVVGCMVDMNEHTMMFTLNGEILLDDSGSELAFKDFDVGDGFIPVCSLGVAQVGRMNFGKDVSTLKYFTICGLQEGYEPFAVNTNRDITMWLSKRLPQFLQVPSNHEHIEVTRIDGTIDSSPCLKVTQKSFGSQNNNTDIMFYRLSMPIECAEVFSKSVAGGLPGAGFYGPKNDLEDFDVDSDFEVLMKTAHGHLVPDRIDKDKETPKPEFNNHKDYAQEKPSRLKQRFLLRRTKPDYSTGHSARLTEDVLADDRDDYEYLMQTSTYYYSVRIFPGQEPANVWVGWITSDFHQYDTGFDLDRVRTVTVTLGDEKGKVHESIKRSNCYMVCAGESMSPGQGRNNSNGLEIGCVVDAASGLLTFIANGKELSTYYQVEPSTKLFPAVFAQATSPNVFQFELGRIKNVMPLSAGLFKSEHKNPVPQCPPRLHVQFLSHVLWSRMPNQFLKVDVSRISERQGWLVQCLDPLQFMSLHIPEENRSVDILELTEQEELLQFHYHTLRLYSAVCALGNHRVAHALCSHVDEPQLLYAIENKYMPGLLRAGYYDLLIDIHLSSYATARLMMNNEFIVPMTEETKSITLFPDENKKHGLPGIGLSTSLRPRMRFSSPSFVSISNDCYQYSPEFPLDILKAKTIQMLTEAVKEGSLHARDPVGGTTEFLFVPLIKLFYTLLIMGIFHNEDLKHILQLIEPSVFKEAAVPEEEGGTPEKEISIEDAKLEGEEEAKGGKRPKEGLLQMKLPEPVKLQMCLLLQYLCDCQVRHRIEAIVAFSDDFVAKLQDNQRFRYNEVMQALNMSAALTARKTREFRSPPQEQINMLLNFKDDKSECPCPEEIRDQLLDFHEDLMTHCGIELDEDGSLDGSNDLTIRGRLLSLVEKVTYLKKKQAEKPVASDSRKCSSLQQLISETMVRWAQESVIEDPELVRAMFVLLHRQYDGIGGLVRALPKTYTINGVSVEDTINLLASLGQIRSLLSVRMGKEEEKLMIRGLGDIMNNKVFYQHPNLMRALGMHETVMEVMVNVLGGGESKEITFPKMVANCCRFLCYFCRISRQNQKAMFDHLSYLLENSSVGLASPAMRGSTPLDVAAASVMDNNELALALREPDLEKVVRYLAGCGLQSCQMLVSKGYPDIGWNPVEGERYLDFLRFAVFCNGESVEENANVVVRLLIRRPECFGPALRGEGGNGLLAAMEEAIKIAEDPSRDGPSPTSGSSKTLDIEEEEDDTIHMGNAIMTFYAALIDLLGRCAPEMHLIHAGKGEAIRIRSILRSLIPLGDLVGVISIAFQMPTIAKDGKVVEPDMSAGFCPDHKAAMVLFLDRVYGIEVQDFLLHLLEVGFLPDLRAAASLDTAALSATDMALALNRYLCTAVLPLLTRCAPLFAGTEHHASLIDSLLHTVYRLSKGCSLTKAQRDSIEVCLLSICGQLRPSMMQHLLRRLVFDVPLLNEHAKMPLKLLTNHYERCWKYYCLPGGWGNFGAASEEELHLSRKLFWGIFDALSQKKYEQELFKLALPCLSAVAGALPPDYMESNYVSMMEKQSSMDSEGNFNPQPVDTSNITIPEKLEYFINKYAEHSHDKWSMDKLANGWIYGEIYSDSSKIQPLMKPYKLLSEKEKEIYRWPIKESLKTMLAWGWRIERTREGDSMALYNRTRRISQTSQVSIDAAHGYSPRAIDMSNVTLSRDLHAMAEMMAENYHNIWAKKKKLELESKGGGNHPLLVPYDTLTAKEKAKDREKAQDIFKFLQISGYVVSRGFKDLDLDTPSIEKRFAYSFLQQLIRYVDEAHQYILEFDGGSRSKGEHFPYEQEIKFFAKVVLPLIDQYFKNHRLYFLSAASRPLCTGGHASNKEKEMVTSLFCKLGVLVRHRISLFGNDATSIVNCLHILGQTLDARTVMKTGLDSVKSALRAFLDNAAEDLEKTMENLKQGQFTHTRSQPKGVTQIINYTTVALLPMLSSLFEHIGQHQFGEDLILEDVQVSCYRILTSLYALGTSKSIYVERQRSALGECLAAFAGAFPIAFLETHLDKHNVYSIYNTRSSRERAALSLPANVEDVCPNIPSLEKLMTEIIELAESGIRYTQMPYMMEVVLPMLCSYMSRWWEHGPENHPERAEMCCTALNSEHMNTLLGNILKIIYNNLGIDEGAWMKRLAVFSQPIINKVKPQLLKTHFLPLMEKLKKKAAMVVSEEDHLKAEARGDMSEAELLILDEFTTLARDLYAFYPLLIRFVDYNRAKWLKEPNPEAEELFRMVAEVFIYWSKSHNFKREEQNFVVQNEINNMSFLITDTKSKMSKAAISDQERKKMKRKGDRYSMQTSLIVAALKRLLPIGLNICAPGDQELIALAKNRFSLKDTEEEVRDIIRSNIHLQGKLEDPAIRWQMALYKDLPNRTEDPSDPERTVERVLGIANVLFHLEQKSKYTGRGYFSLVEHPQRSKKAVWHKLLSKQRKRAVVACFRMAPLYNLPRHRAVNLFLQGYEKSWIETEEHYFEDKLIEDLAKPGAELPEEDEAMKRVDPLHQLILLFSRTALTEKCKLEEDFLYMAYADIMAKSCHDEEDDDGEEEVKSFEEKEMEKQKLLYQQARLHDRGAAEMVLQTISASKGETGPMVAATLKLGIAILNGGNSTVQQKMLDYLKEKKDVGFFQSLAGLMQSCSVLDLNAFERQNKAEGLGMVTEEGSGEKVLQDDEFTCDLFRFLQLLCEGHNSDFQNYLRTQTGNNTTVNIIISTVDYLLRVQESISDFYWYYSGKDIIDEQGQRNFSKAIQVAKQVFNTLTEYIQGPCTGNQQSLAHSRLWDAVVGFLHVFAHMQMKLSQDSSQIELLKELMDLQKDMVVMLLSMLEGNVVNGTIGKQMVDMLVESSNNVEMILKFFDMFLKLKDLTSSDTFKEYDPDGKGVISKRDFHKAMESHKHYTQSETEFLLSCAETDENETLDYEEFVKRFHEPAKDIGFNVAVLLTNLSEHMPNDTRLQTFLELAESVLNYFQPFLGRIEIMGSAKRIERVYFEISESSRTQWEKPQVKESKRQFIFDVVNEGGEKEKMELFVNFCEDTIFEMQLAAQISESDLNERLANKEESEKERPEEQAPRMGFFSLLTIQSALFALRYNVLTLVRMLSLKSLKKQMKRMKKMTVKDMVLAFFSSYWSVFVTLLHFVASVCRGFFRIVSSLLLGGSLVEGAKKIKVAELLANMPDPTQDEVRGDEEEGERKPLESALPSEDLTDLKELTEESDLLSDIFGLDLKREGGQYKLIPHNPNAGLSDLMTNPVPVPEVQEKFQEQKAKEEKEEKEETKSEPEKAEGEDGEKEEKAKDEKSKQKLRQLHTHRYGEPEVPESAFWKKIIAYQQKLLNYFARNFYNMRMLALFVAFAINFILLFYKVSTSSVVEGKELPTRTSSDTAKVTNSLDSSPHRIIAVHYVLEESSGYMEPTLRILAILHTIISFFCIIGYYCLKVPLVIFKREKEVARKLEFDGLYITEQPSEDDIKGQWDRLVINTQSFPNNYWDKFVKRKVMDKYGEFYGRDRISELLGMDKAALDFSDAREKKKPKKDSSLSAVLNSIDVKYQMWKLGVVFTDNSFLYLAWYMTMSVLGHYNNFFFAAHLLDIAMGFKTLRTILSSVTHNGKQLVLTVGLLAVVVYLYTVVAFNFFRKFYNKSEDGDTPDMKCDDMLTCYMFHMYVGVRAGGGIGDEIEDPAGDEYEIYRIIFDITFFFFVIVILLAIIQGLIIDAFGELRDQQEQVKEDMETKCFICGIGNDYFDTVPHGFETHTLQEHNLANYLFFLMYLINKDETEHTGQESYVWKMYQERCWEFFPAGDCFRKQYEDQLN

IC50 (RyR2 [1]): 130 nM
EC50 (RyR2 [2]): 300 nM
SMILES: Cc1cc(O)cc(C)c1Cl [#1, chloroxylenol]
